Results published in patent US20070225363A1, “Methods and Agents for Inhibiting Dynamin-Dependent Endocytosis” (the University of Newcastle Research Associates Ltd., priority 2003, published 2007).
“Also recorded” adds a separate entry of the source.

Assays:
dynamin II = test: [α-32P]-GTP binding assay, dynamin II
Procedure: (§1) The [α-^32P]-GTP-binding assay was performed in the wells of a 96-well microtitre plate. Dynamin (0.2 μg/well) was added to GTPase buffer and incubated for 10 min at 4 C in the dark. [α-^32P]-GTP (2 μCi/tube) was then added to the reaction and incubated for a further 10 min at 4 C. in the dark. The microtitre plate was then irradiated with a short wavelength ultraviolet lamp at […] for 30 min at a distance of 8 cm. The specificity of photolabelling was determined by comparing the labelling in the presence and absence of 1 mM cold GTP. Samples were then applied to nitrocellulose membranes by aspiration through the wells of a 24 well slot blotter. The nitrocellulose was washed 3 times with PBS and dried. Bound nucleotide was detected by a phosphorimager (Molecular Dynamics).

[1] = test system: isolated rat brain nerve terminals (synaptosomes); test: Electron microscopy of synaptosomes; type: cell-based; conditions: 100 μM
Procedure: Synaptosomes were incubated for 5 min in Krebs-like solution containing 1.2 mM Ca^2+ then stimulated with 30 mM KCl for 2 minutes. […] After stimulation, synaptosomes were pelleted in a microfuge for 1 minute at room temperature then fixed by gentle resuspension in ice-cold phosphate buffered saline supplemented with 5% glutaraldehyde. After 1 hr they were centrifuged at low speed (2500 rpm) for 5 min at room temperature to loosely pellet the synaptosomes. The pellets were washed gently 3 times with MOPs buffer with low spins (2500 rpm) for 7 minutes then gently resuspended in a 10% bourine serum albumin (BSA) in water and allowed to stand for 20 min at room temperature. The synaptosomes were then centrifuged again for 7 minutes at low speed (2500 rpm), overlaid with Karnovsky's fixative and incubated at 4° C. overnight. The pellets were subsequently rinsed and fixed in a buffered solution of osmium tetroxide for 3 hours. Synaptosomes were then rinsed and stained for 1 hour in 2% aqueous uranyl acetate prior to being dried by a series of sequential 10 minute washes: 50% ethanol plus 0.1% NaCl, 70% ethanol plus 0.1% NaCl, 95% ethanol plus 0.1% NaCl, 100% ethanol plus 0.1% NaCl twice and 100% acetone twice. […]

[2] = test system: isolated nerve terminals (synaptosomes); test: Synaptic vesicle endocytosis, FM2-10 uptake in synaptosomes; type: cell-based, rat; conditions: 100 μM, synaptosomes
Procedure: Isolated nerve terminals (synaptosomes) were prepared from rat cerebral cortex by centrifugation on discontinuous percoll gradients (Dunkley et al., 1986). Fractions 3 and 4 were pooled and used in all experiments. Endocytosis was measured using uptake of the fluorescent dye FM2-10 as previously described (Cousin and Robinson 2000a). Synaptosomes (0.6 mg in 2 ml) were incubated for 5 min at 37° C. in plus or minus Ca^2+ Krebs-like solution. FM2-10 ([…]) was added 1 min before stimulation with 30 mM KCl (S1). As FM2-10 is taken up by vesicles via endocytosis at the S1 phase of stimulation, synaptosomes were incubated with antagonists during this phase. […] After 2 min of stimulation synaptosomes were washed twice in plus Ca^2+ solution containing 1 mg/ml bovine serum albumin. The washing steps remove non-internalised FM2-10 and the tyrphostins. Washed synaptosomes were resuspended in plus Ca^2+ solution at 37° C., transferred to a fluorimeter cuvette and stimulated with a standard addition of 30 mM KCl (S2). The standard S2 stimulation releases all accumulated FM2-10 and allows endocytosis to be measured as the decrease in FM2-10 fluorescence due to dye release into solution (excitation 488 nm, emission 540 nm).
Endocytosis was calculated as the decrease in absolute fluorescence stimulated by 30 mM KCl at S2. […] Retrieval efficiency is a more accurate measure of endocytosis since it takes into account the amount of prior exocytosis. Retrieval efficiency was calculated as endocytosis/exocytosis, where endocytosis is defined as above and exocytosis as Ca^2+-dependent glutamate release after 2 min of stimulation. The retrieval efficiency value was normalised to a ratio of 1.0 for 30 mM KCl.

Swiss 3T3 cells = test: Texas Red-transferrin uptake in Swiss 3T3 cells; type: cell-based; conditions: drug added 15 or 60 minutes before Tf-TxR
Procedure: Transferrin (Tf) uptake was analysed in Swiss 3T3 and HER14 cells based on methods previously described (van der Bliek et al., 1993). Briefly, cells were plated to 60% confluency in DMEM medium plus 10% foetal calf serum after which the cells were incubated overnight (8-10 hours) in DMEM minus foetal calf serum. Texas red-transferrin (Tf-TxR, Molecular Probes, Oregon) was added to a final concentration of 5 μg/ml and the cells incubated at 37° C. for 10 minutes. Cell surface staining was removed by incubating the cells in an ice cold acid wash solution (0.2 M acetic acid +0.5 M NaCl, pH 2.8) for 15 minutes. Cells were immediately fixed with 4% paraformaldehyde for 10 minutes then washed 3 times with PBS. Nuclei were stained using DAPI (Molecular Probes, Oregon). Slides were mounted using DABCO and the fluorescence was monitored using a Leica DMLB bright field microscope and SPOT digital camera.

dynamin I = dynamin I (Ovis aries, UniProt A0ACI6NZN1); test: [α-32P]-GTP binding assay, dynamin I; set-up: species or system sheep
dynamin I, sequence (A0ACI6NZN1 entry or part of it): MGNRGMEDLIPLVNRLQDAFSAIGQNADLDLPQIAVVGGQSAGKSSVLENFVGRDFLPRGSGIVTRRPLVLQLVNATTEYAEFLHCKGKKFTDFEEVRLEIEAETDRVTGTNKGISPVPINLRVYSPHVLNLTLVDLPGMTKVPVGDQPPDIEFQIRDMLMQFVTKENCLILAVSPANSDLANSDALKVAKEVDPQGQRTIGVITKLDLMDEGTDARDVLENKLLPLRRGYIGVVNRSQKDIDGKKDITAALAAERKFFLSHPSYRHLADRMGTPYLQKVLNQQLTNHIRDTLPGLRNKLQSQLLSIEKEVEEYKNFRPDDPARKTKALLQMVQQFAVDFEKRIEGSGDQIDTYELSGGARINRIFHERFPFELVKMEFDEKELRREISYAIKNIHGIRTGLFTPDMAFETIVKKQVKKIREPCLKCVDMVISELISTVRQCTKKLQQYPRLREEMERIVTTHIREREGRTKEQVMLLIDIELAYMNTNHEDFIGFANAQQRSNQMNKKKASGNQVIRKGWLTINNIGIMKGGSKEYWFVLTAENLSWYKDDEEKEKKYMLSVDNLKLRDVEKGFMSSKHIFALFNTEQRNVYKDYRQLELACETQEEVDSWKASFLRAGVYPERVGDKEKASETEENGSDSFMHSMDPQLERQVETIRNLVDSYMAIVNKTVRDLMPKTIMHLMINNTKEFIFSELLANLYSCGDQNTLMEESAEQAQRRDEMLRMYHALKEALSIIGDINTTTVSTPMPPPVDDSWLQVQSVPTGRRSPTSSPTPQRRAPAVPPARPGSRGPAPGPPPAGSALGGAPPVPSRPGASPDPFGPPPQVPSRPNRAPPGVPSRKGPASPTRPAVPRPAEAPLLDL
Procedure: as §1

Rab3A = biological target: T1, Rab3A (Homo sapiens, UniProt P20336); test: [α-32P]-GTP binding to small G protein Rab3A; conditions: data not shown
T1 sequence (P20336 1-220): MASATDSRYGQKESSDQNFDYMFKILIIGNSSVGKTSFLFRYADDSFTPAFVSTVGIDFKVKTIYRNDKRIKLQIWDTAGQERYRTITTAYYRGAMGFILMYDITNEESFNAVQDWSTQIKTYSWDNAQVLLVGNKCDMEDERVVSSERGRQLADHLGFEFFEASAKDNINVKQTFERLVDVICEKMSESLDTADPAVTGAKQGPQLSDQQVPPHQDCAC
Procedure: Competition of these drugs with GTP for the active site of 4 small G proteins (Rab3A, Ras, Arf2, RalA) was also tested.

## N#C/C(=C\c1ccc(O)c(O)c1)C(=O)NCCCNC(=O)/C(C#N)=C/c1ccc(O)c(O)c1 [bis-tyrphostin]
Dynamin II
  [α-32P]-GTP binding to dynamin II in the presence of drug: not seen to decrease; also recorded: not affected
[1]; depolarised with KCl
  morphology of depolarised synaptosomes: massive depletion of synaptic vesicles
[1]; unstimulated
  morphology of unstimulated synaptosomes: no effect on their morphology
[2]
  inhibition of synaptic vesicle endocytosis (SVE): specifically decreases endocytosis
[2]; listed as Bis-tyrphostin
  inhibition of synaptic vesicle endocytosis (SVE): significantly inhibited
Swiss 3T3 cells
  internalisation of texas-red labelled transferrin into Swiss 3T3 cells: very large decrease in transferrin staining; also recorded: inhibited
Dynamin I
  [α-32P]-GTP binding to dynamin I in the presence of drug: not seen to decrease; also recorded: not affected
Rab3A
  effect on [α-32P]-GTP binding to Rab3A: neither drug affected
